≈ marks a conversion by molar mass, not a printed value. Like-named read-outs stand apart in the source and are kept apart here.
Legend:
[1] = target: T1, αvβ3 receptor (αvβ3 from human A375 cells) (Homo sapiens, UniProt P05106+P06756); assay: αvβ3 binding test (echistatin displacement, SPA)
T1 construct: αvβ3 from human A375 cells was purified analogously to a procedure described by Wong et al; endogenous in cells; host or cells: human A375 cells (endogenous receptor, detergent-solubilised and purified)
T1 sequence (P06756 31-889 limits assumed): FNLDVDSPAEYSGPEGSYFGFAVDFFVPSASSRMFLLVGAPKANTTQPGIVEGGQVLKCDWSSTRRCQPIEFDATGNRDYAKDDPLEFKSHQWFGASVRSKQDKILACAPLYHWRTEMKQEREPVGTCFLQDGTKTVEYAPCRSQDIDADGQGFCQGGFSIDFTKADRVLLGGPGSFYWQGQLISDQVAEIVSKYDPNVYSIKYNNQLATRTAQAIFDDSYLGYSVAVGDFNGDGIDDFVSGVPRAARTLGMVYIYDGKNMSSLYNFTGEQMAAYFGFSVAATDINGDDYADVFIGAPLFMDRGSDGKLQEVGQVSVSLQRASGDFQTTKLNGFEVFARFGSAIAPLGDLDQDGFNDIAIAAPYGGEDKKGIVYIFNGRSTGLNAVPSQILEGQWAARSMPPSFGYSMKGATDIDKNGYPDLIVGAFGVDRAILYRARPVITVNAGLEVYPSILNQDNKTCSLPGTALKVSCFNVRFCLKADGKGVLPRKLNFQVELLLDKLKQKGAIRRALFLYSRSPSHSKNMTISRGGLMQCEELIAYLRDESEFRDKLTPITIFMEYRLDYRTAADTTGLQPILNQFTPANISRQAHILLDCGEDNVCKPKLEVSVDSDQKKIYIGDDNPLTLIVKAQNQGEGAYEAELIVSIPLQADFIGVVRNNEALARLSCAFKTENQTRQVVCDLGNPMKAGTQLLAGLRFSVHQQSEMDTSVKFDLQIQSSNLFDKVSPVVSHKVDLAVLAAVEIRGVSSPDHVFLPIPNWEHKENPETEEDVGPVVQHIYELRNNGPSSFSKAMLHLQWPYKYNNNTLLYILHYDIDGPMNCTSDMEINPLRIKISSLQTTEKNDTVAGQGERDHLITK
T1 sequence (P06756 891-1048 partner limits assumed): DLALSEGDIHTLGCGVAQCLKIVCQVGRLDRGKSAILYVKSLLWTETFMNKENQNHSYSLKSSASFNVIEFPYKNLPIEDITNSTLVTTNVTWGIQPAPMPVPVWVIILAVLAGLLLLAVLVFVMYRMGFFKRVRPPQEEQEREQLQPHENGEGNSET
T1 sequence (P05106 27-788): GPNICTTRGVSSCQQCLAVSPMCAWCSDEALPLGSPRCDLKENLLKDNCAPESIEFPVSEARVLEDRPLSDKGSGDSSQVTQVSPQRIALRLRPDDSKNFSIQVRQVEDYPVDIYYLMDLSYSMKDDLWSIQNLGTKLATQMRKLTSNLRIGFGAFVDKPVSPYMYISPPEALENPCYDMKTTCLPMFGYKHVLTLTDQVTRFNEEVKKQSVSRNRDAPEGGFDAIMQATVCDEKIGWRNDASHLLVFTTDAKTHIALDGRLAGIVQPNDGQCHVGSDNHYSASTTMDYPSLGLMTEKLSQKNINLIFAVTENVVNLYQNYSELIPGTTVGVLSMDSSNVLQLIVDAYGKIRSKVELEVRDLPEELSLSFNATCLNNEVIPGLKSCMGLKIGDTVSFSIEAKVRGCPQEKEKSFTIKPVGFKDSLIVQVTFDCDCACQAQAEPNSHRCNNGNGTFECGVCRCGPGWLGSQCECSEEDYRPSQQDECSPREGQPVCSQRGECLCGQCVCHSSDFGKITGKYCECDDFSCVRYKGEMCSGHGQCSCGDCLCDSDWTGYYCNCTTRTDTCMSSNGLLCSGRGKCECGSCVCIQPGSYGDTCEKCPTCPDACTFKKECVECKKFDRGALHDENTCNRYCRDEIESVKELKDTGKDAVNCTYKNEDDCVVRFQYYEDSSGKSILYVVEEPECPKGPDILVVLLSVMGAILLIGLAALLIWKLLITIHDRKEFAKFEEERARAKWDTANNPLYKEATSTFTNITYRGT
Method: αvβ3 from human A375 cells was purified analogously to a procedure described by Wong et al. in Molecular Pharmacology 50, 529–537 (1996). In each case, 10 μL of αvβ3 (5 ng) in TBS pH 7.6, 2 mM CaCl2, 1 mM MgCl2, 1% n-octylglucopyranoside (Sigma); 10 μL of test substance in TBS pH 7.6, 0.1% DMSO and 45 μL of TBS pH 7.6, 2 mM CaCl2, 1 mM MgCl2, 1 mM MnCl2 were incubated at room temperature for 1 h. In each case, 25 μL of WGA SPA beads (Amersham, 4 mg/ml) and 10 μL of echistatin (0.1 μCi, Amersham, chloramine-T labelled) were then added. After 16 h at room temperature, the samples were measured in a scintillation measuring apparatus (Wallac 1450).

[2] = tested on: renal xenograft (RXF 944)
Source text: (§1) In all in-vivo experiments for investigating the inhibition of tumour growth, athymic nude mice (NMRI nu/nu strain) were used. The tumour was developed by serial passage in nude mice, The human origin of the tumour was confirmed by isoenzymatic and immunohistochemical methods.
(§2) The tumour was implanted subcutaneously in both flanks of nu/nu nude mice 6 to 8 weeks old. […] The mice were assigned to the treatment group or the control group (5 mice per group having 8 to 10 assessable tumours) by randomization.
(§3) The size of the tumours was measured in two dimensions by means of a slide gauge. The tumour volume which correlated well with the cell count, was then used for all assessments. The volume was calculated according to the formula “length×breadth×breadth/2” ([a×b^2]/2; a and b representing two diameters arranged at right angles).
(§4) The values of the relative tumour volume (RTV) were calculated for each individual tumour by dividing the tumour size on day X with the tumour size on day 0 (at the time of randomization). The average values of the RTV were then used for the further assessment.
(§5) The inhibition of the increase of the tumour volume (tumour volume of the test group/control group, T/C, in percent) was the final measured value.

[3] = tested on: melanoma xenograft (MEXF 989); format: in vivo, athymic nude mice (NMRI nu/nu strain)
[4] = tested on: hemopoietic stem cells (bone marrow cells); assay: cells; format: cell-based, mice
Method: Bone marrow cells are flushed out of the femur of mice. 10^5 cells are incubated in McCoy 5A medium (0.3% agar) together with recombinant murine GM-CSF (Genzyme; parent cell colony formation) and the substances (10^−4 to 100 μg/ml) at 37° C. and 7% CO2. 7 days later, the colonies (<50 cells) and clusters (17–50 cells) are counted.

[5] = tested on: B16F10 mouse melanoma cell line; format: cell-based
Method: (§6) The human large intestine cell lines SW 480 and HT29 (ATCC No. CCL 228) and HTB38 and the mouse melanoma cell line B16F10 (CRL 6475) were grown to confluence in Roux dishes in seromed® RPMI 1640 medium (from Biochrom KG, Berlin) with addition of 10% FCS. They were then trypsinized and taken up in RPMI plus 10% FCS to a cell count of 50,000 cells or, for B16F10, 20,000 cells per mL. 100 μL of cell suspension per well were added to a 96 microwell plate and incubated at 37° C. for 1 day in a CO2 incubator. A further 100 μL of RPMI medium and 1 μL of DMSO were then added with the test substances. The growth was checked after day 6. For this purpose, 25 μL of MTT solution (3-(4,5-dimethylthiazol-2-yl)-2,5-diphenyltetrazolium bromide) were added to each well at a starting concentration of 5 mg/mL of water. The plate was incubated at 37° C. for 5 hours in a CO2 incubator. The medium was then aspirated and 100 1L of i-propanol/well were added. After shaking with 100 μL of water for 30 min, the extinction was measured at 595 nm using a Multiplate Reader (BIO-RAD 3550-UV).
(§7) The cytostatic action is indicated in Table 3 as an IC50 value, in each case for the individual cell lines.

[6] = tested on: SW480 human large intestine cell line; format: cell-based
Method: as §6, §7

[7] = tested on: HT29 human large intestine cell line; format: cell-based
Method: as §6, §7

[8] = tested on: breast cancer model (MX-1)
Source text: as §1, §2, §3, §4, §5
The compounds are dissolved in 1% aqueous dextrose solution and administered intravenously from day 1–3 and day 15–17.

[9] = IC50 values of the binding to the αVβ3 receptor
[10] = read-out: IC50 values of the binding to the αVβ3 receptor
[11] = RXF 944, 6 mg/kg/day intravenously day 1–3 and day 15–17
[12] = MEXF 989, 6 mg/kg/day intravenously day 1–3 and day 15–17
[13] = MX-1, 6 mg/kg/day intravenously day 1–3 and day 15–17

| SMILES | toxicity against stem cells in vitro compared to camptothecin (in words) [4] | IC50 [5] | IC50 [6] | IC50 [7] | IC50 [1, 10] | other results |
| --- | --- | --- | --- | --- | --- | --- |
| CCCNC(=O)Nc1cccc(S(=O)(=O)Nc2cccc(C(CC(=O)[O-])NC(=O)Nc3ccc(NC(=S)NCC(=O)N4CCC[C@H]4C(=O)N[C@H](C(=O)O[C@]4(CC)C(=O)OCc5c4cc4n(c5=O)Cc5cc6ccccc6nc5-4)C(C)C)cc3)c2)c1.[Na+] (single isomer, unassigned) [Example 1] | drastically reduced toxicity against stem cells in vitro compared to camptothecin | 160 nM | 150 nM | 60 nM | – | IC50 [1, 9]: 8 nM; lethality ([2]; RXF 944, 18 mg/kg/day intravenously day 1–3 and day 15–17): 1/7; lethality ([2]; RXF 944, 24 mg/kg/day intravenously day 1–3 and day 15–17): 0/7; lethality ([3]; MEXF 989, 18 mg/kg/day intravenously day 1–3 and day 15–17): 1/5; lethality ([3]; MEXF 989, 24 mg/kg/day intravenously day 1–3 and day 15–17): 1/5; lethality ([8]; MX-1, 18 mg/kg/day intravenously day 1–3 and day 15–17): 0/5 |
| CCCNC(=O)Nc1cccc(S(=O)(=O)Nc2cccc(C(CC(=O)[O-])NC(=O)Nc3ccc(NC(=S)NCC(=O)N4CCC[C@H]4C(=O)N[C@H](C(=O)O[C@]4(CC)C(=O)OCc5c4cc4n(c5=O)Cc5cc6ccccc6nc5-4)C(C)C)cc3)c2)c1.[Na+] (single isomer, unassigned) [Example 2] | drastically reduced toxicity against stem cells in vitro compared to camptothecin | 400 nM | 400 nM | 150 nM | – | IC50 [1, 9]: 800 nM |
| CCCNC(=O)Nc1cccc(S(=O)(=O)Nc2cccc(C(CC(=O)O)NC(=O)Nc3ccc(NC(=S)N[C@@H](C)C(=O)N4CCC[C@H]4C(=O)N[C@H](C(=O)O[C@]4(CC)C(=O)OCc5c4cc4n(c5=O)Cc5cc6ccccc6nc5-4)C(C)C)cc3)c2)c1 (single isomer, unassigned) [Example 3] | drastically reduced toxicity against stem cells in vitro compared to camptothecin | 700 nM | 500 nM | 150 nM | 15 nM | lethality [2, 11]: 1/7; optimal T/C [2, 11]: 24.0%; inhibition of the tumour growth (in words) ([2]; RXF 944, intravenously day 1–3 and day 15–17): effected inhibitions of the tumour growth; lethality [3, 12]: 0/5; optimal T/C [3, 12]: 10.3%; inhibition of the tumour growth (in words) ([3]; MEXF 989, intravenously day 1–3 and day 15–17): effected inhibitions of the tumour growth; lethality [8, 13]: 0/5; optimal T/C [8, 13]: 12.4%; inhibition of the tumour growth (in words) ([8]; MX-1, intravenously day 1–3 and day 15–17): effected inhibitions of the tumour growth |
| CCCNC(=O)Nc1cccc(S(=O)(=O)Nc2cccc(C(CC(=O)O)NC(=O)Nc3ccc(NC(=S)N[C@@H](C)C(=O)N4CCC[C@H]4C(=O)N[C@H](C(=O)O[C@]4(CC)C(=O)OCc5c4cc4n(c5=O)Cc5cc6ccccc6nc5-4)C(C)C)cc3)c2)c1 (single isomer, unassigned) [Example 4] | drastically reduced toxicity against stem cells in vitro compared to camptothecin | 700 nM | 600 nM | 150 nM | 500 nM | – |
| CCCNC(=O)Nc1cccc(S(=O)(=O)Nc2cccc(C(CC(=O)O)NC(=O)Nc3ccc(NC(=S)N[C@@H](Cc4c[nH]cn4)C(=O)N4CCC[C@H]4C(=O)N[C@H](C(=O)O[C@]4(CC)C(=O)OCc5c4cc4n(c5=O)Cc5cc6ccccc6nc5-4)C(C)C)cc3)c2)c1 (single isomer, unassigned) [Example 5] | – | 1000 nM | 700 nM | 300 nM | 30 nM | – |
| CCCNC(=O)Nc1cccc(S(=O)(=O)Nc2cccc(C(CC(=O)O)NC(=O)Nc3ccc(NC(=S)N[C@@H](CC(N)=O)C(=O)N4CCC[C@H]4C(=O)N[C@H](C(=O)O[C@]4(CC)C(=O)OCc5c4cc4n(c5=O)Cc5cc6ccccc6nc5-4)C(C)C)cc3)c2)c1 (single isomer, unassigned) [Example 6] | – | 600 nM | 400 nM | 200 nM | 100 nM | – |
| CCCNC(=O)Nc1cccc(S(=O)(=O)Nc2cccc(C(CC(=O)O)NC(=O)Nc3ccc(NC(=S)N[C@@H](CCC)C(=O)N4CCC[C@H]4C(=O)N[C@H](C(=O)O[C@]4(CC)C(=O)OCc5c4cc4n(c5=O)Cc5cc6ccccc6nc5-4)C(C)C)cc3)c2)c1 (single isomer, unassigned) [Example 7] | – | 1000 nM | 600 nM | 350 nM | 100 nM | – |
| CCCNC(=O)Nc1cccc(S(=O)(=O)Nc2cccc(C(CC(=O)O)NC(=O)Nc3ccc(NC(=S)N[C@@H](CC(=O)O)C(=O)N4CCC[C@H]4C(=O)N[C@H](C(=O)O[C@]4(CC)C(=O)OCc5c4cc4n(c5=O)Cc5cc6ccccc6nc5-4)C(C)C)cc3)c2)c1 (single isomer, unassigned) [Example 8] | – | 300 nM | 50 nM | 50 nM | – | – |
| CCCNC(=O)Nc1cccc(S(=O)(=O)Nc2cccc(C(CC(=O)O)NC(=O)Nc3ccc(NC(=S)NCC(=O)N4CCC[C@H]4C(=O)N[C@@H](CC(C)C)C(=O)O[C@]4(CC)C(=O)OCc5c4cc4n(c5=O)Cc5cc6ccccc6nc5-4)cc3)c2)c1 (single isomer, unassigned) [Example 9] | – | 80 nM | 70 nM | 30 nM | – | – |
| CCCNC(=O)Nc1cccc(S(=O)(=O)Nc2cccc(C(CC(=O)O)NC(=O)Nc3ccc(NC(=S)N[C@@H](C)C(=O)N4CCC[C@H]4C(=O)N[C@@H](CC(C)C)C(=O)NC4C=CCC5CN(c6c(F)cc7c(=O)c(C(=O)O)cn(C8CC8)c7c6Cl)CC54)cc3)c2)c1 (single isomer, unassigned) [Example 12] | – | – | – | – | 30 nM | IC50 ([5]; 6 days): 2000 nM; IC50 ([6]; 6 days): 1000 nM; IC50 ([7]; 6 days): 600 nM |
| CC[C@@]1(O)C(=O)OCc2c1cc1n(c2=O)Cc2cc3ccccc3nc2-1 [camptothecin, 20(S)-Camptothecin, reference compound] | – | – | – | – | – | lethality ([2]; RXF 944, 2.5 mg/kg/day): 0/6; optimal T/C ([2]; RXF 944, 2.5 mg/kg/day): 41.1%; IC50 ([4]; Mus musculus, Bone marrow cell, 168 h, murine bone marrow cells, GM-CSF, 7 days, read-out: IC50 values of toxicity against hemopoietic stem cells): 3 ng/mL (≈ 8.61 nM) |
| CC[C@@]1(O)C(=O)OCc2c1cc1n(c2=O)Cc2cc3c(CN(C)C)c(O)ccc3nc2-1 [topotecan, reference compound] | – | – | – | – | – | lethality ([2]; RXF 944, 1.8 mg/kg/day): 0/7; optimal T/C ([2]; RXF 944, 1.8 mg/kg/day): 47.8% |

Source: US7304037B2, “Cytostatic conjugates with integrin ligands” (priority 2001, dated 2007)
